Data: US20230103554A1, “TNFa SIGNALING [sequence] TUMOR-PROMOTING INFLAMMATION THAT CAN BE TARGETED TO THERAPY” (Baylor College of Medicine, priority 2020, published 2023)

How the values were obtained:
monocyte IL-6 production = assay: NB-monocyte co-culture, IL-6 ELISA of supernatant; assay type: cell-based, human; conditions: 24 hours
Method: (§1) Monocytes were directly cultured with wild-type or TNF, TNFR1, TNFR2 KO NB cell lines in ULA plates for 24 hours. Activation of NF-kB in monocytes and NB was measured by flow cytometry and cytokine production measured by ELISA from co-culture supernatant. To evaluate the contact-dependence of monocyte activation by NB, monocytes were cultured in ULA plates with seven-day NB conditioned medium mixed 1:1 with complete monocyte medium for 24 hours and analyzed for IL-6 production. To assess the growth advantage of NB cultured with monocytes, NB-luc cell lines and monocytes were seeded in tissue culture-treated white 96-well plates (1:1 ratio) and cultured for four days. Luminescence was measured using a TECAN Spark plate reader (TECAN). To evaluate changes in proliferation, NB was pulsed for 10 minutes in CellTrace Violet (2 μM, Invitrogen) and seeded at 100,000 cells per well in a 12-well tissue culture-treated plate. Monocytes were added directly to the NB monolayer at a density of 100,000 per well and incubated for four days. CellTrace Violet expression was analyzed by flow cytometry.
Cytokines released by monocytes were detected within co-culture supernatants using the Human TNF-alpha Quantikine ELISA Kit (TNFα, R&D Systems) and the Human IL-6 Quantikine ELISA Kit (IL-6, R&D Systems) according to manufacturer's guidelines. ELISA plates were read using a TECAN Spark plate reader (TECAN). Global cytokine regulation was evaluated using a custom Luminex panel containing the following cytokines: CX3CL1, CXCL10, EGF, FGF-2, Flt3L, G-CSF, GM-CSF, IL-1α, IL-1β, IL-1Ra, IL-4, IL-6, IL-8, IL-10, IL-12 (p40), IL-12 (p′70), M-CSF, MCP-1, MCP-3, MDC, MIP-1α, MIP-1β, TGFα, TNFα, TNFβ, and VEGF-A (Human Cytokine Panel A, Millipore-Sigma).

[1] = test system: NF-κB signaling in NB cells; assay: Intracellular IκBα in NB population of co-culture (PhosFlow flow cytometry); assay type: cell-based, human
Method: as §1
To evaluate the expression of TNFα in NB and monocytes, cells were first stimulated with LPS (50 ng/mL) in the presence of GolgiStop (BD Biosciences) and fixed using CytoFix/Cytoperm buffer (BD Biosciences). Cells were then stained with TNFα-PE (BD Biosciences). To evaluate the expression of TNFR1 and TNFR2 on NB and monocytes, cells were stained with TNFR1-BV421 and TNFR2-APC (BD Biosciences) in FACS staining buffer containing 0.05% sodium azide to prevent receptor/antibody processing. To estimate changes in NF-kB expression, treated co-cultures were first stained with ZombieViolet (1 μL/test, Biolegend) to counterstain dead cells and APC-H7 CD45 and/or FITC-CD14 to label monocytes for 20 minutes at room temperature. […] All flow samples were run using an LSRII 5-laser flow cytometer (Texas Children's Hospital Cancer Center Flow Cytometry Core, Houston, Tex.) and analyzed using FlowJo Software (Treestar).

SK-N-AS and monocytes = assay: Tumorsphere cluster formation in low attachment plates; assay type: cell-based, human; conditions: 10 μg/mL etanercept, 24 hours, ultra low attachment plates
[2] = test system: SK-N-AS-luc/monocyte xenografts; assay: SK-N-AS-luc/monocyte subcutaneous xenograft in NSG mice; assay type: in vivo, mouse
Method: Luciferase-labeled NB and freshly isolated human monocytes were embedded in Matrigel and injected into the subcutaneous right flank of 8-week female NSG mice. […] (FIG. 9A) Tumor growth was tracked indirectly through luminescence imaging using IVIS Imaging system. (FIG. 9B) Average tumor luminescence of each group over time. After 3 weeks, mice were sacrificed and the tumor size was analyzed directly by weight. The bottom line is NB+Mono+FcTNFR and the top line is NB+Mono+IgG. (FIG. 9C) Representative image of 5 tumors from each group. (FIG. 9D) Tumor weight by group after Log10 transformation of weight (in mg). * p<0.05, ** p<0.01;
(FIG. 27A) SK-N-AS-luc and freshly isolated human monocytes were embedded in matrigel and injected into the subcutaneous right flank of eight-week female NSG mice. […] Representative luminescence images (Ctrl n=7, Etan n=13) measured in radiance (photons/second/cm2/steradian). (FIG. 27B) Graphical representation of total luminescence per tumor from (A) over time. (FIG. 27C) Mean tumor total luminescence over time, two-way ANOVA with Bonferroni multiple comparisons test (Ctrl n=7, Etan n=13); NB/Mon+Ctrl line is on top. (FIG. 27D) Representative tumors for each group following sacrifice at day 21. * p<0.05; […]

## etanercept
Monocyte IL-6 production; CHLA-255 + monocytes, 10 μg/mL etanercept, vs IgG control (FIG. 15B)
  IL-6 production: almost entirely blocked
Monocyte IL-6 production; SK-N-AS + monocytes, vs IgG control
  IL-6 level in co-culture supernatant: decrease
[1]; CHLA-255 + monocytes, 10 μg/mL etanercept, 24 hours (FIG. 15D)
  reversal of IκBα degradation in NB: partial
[1]; SK-N-AS + monocytes, etanercept, 24 hours
  IκBα levels in NB cells: restored IκBα levels to the levels found in NB cells cultured alone
SK-N-AS and monocytes
  association of NB/monocytes into tumorsphere clusters: blocking the ability of NB/monocytes to associate into tumorsphere clusters
[2]; 5 mg/kg (100 μg) i.p. bi-weekly, vs IgG control
  reduction of tumor growth (luminescence): 30%
[2]; SK-N-AS + monocytes in Matrigel, 100 μg bi-weekly, vs IgG control (FIG. 9)
  growth of tumors: significantly decreased the growth of tumors
